In US4874869A, “Hydantoin derivatives and medicines containing the same” (Eisai Co., Ltd., priority 1980, dated 1989):
Like-named read-outs stand apart in the source and are kept apart here.

Tests used:
[1] = system: sorbitol accumulation in the lens and the sciatic nerve; assay: Reduction or inhibition of sorbitol accumulation in the lens and the sciatic nerve of streptozotocin-induced diabetic rats; format: in vivo, rat; details: for Inhibition of sorbitol accumulation: vs no compound; for higher activities such as the inhibition of sorbitol accumulation, predominant diastereomer compared with the other isomer: predominant vs minor diastereomer; for superior effect on the inhibition of sorbitol accumulation in comparison with the control compound: vs control compound, Table 1
Protocol: The compounds listed in Tables 1 and 2 were tested for the ability to reduce or inhibit the accumulation of sorbitol in the lens and the sciatic nerve of streptozotocin-induced diabetic rats by the method of M. J. Peterson et al., [Metabolism, Vol. 28, No. 4, Supply. 1 (April), 456-461 (1979)]. […] In this experiment, the amount of sorbitol accumulation in the lens and the sciatic nerve of the rat was measured 28 hours after induction of diabetes.
The compounds listed in Tables 1 and 2 were orally administered at, the dose levels indicated in the Tables, 4, 8 and 25 hours after the administration of the streptozotocin.

[2] = system: cataract formation in galactosemic rats; assay: Effect on cataract formation in galactosemic rats (visual observation of lenticular opacities); format: in vivo, male Sprague-Dawley rats; details: for lenticular opacities, number with grade + / lenticular opacities, number with grade - (no opacity) / lenticular opacities, number with grade ++ / lenticular opacities, number with grade +++: 16th day, total 6
Protocol: (§1) On the 16th day of the study (24 hours after the final administration) lenticular opacities were observed, and then the lens and the sciatic nerve were enucleated to determine the content of carbohydrates.
The abscissa in FIG. 1 indicates the number of days from the beginning of feeding of a 30% galactose diet, and the ordinate indicates the percentages of appearance of the cataract.
In Table 3, a symbol - represents the case of no opacity and +, ++, +++ show the grade of the opacity, respectively.

[3] = molecular target: T1, aldose reductase (Bos taurus, UniProt P16116); assay: Inhibition effect on aldose reductase; format: biochemical; details: for activity of the d-type relative to the dl-type product: aldose reductase
T1 construct: Aldose reductase was prepared by the method of Hayman et al; from tissue
Protocol: Aldose reductase was prepared by the method of Hayman et al. [S. Hayman and K.K. Kinoshita; Journal of Biological Chemistry, Vol. 240, p.

[4] = system: galactitol accumulation in the lens and the sciatic nerve; assay: Inhibition of galactitol accumulation in the lens and the sciatic nerve of galactosemic rats; format: in vivo, male Sprague-Dawley rats; details: for Inhibition of galactitol accumulation: 16th day
Protocol: as §1

[5] = lens, 5 mg/kg oral, 4, 8 and 25 h after streptozotocin
[6] = sciatic nerve, 5 mg/kg oral, 4, 8 and 25 h after streptozotocin
[7] = lens, 10 mg/kg oral, 4, 8 and 25 h after streptozotocin
[8] = sciatic nerve, 10 mg/kg oral, 4, 8 and 25 h after streptozotocin
[9] = right, 25 mg/kg oral once a day
[10] = Table 5, read-out: ID50 (concentration of 50% inhibition on aldose reductase)
[11] = lens, 0.2 mg/kg oral, 4, 8 and 25 h after streptozotocin
[12] = lens, 1 mg/kg oral, 4, 8 and 25 h after streptozotocin
[13] = sciatic nerve, 0.2 mg/kg oral, 4, 8 and 25 h after streptozotocin
[14] = sciatic nerve, 1 mg/kg oral, 4, 8 and 25 h after streptozotocin
[15] = sciatic nerve, 1 mg/kg oral once a day
[16] = sciatic nerve, 5 mg/kg oral once a day
[17] = sciatic nerve, 25 mg/kg oral once a day
[18] = similar manner as in Experiment 3, d-type vs dl-type product, read-out: ID50, inhibition effect on the Aldose reductase

| Structure (SMILES) | Inhibition of sorbitol accumulation [1, 5] [%] | Inhibition of sorbitol accumulation [1, 6] [%] | Inhibition of sorbitol accumulation [1, 7] [%] | Inhibition of sorbitol accumulation [1, 8] [%] | Inhibition on aldose reductase ([3]; 3 × 10^-6 (M)) [%] | Inhibition on aldose reductase ([3]; 3 × 10^-7 (M)) [%] | Inhibition on aldose reductase ([3]; 10^-6 (M)) [%] | Inhibition on aldose reductase ([3]; 10^-7 (M)) [%] | IC50 [3, 10] [nM] | Inhibition of sorbitol accumulation [1, 11] [%] | Inhibition of sorbitol accumulation [1, 12] [%] | Inhibition of sorbitol accumulation [1, 13] [%] | Inhibition of sorbitol accumulation [1, 14] [%] | IC50 [3, 18] [nM] | other results |
| --- | --- | --- | --- | --- | --- | --- | --- | --- | --- | --- | --- | --- | --- | --- | --- |
| CC1CC2(NC(=O)NC2=O)c2ccccc2O1 (stereo not drawn) [2-Methyl-spiro-[chroman-4,4'-imidazolidine]-2',5'-dione] | 54 | 77 | – | – | – | – | – | – | – | – | – | – | – | – | – |
| CC1Oc2ccc(Cl)cc2C12NC(=O)NC2=O (stereo not drawn) [5-Chloro-2-methyl-spiro-[benzofuran-3,4'-imidazolidine]-2',5'-dione] | – | – | 95 | 45 | – | – | – | – | – | – | – | – | – | – | – |
| CC1CC2(NC(=O)NC2=O)c2cc(Cl)c(Cl)cc2O1 (stereo not drawn) [6,7-Dichloro-2-methyl-spiro-[chroman-4,4'-imidazolidine]-2',5'-dione] | 88 | – | – | – | – | – | – | – | – | – | – | – | – | – | – |
| CC1(C)CC2(NC(=O)NC2=O)c2cc(Cl)cc(Cl)c2O1 (stereo not drawn) [6,8-Dichloro-2,2-dimethyl-spiro-[chroman-4,4'-imidazolidine]-2',5'-dione] | – | – | 87 | 55 | – | – | – | – | – | – | – | – | – | – | – |
| CC1(C)CC2(NC(=O)NC2=O)c2cc(Br)ccc2O1 (stereo not drawn) [6-Bromo-2,2-dimethyl-spiro-[chroman-4,4'-imidazolidine]-2',5'-dione] | – | – | 88 | 100 | – | – | – | – | – | – | – | – | – | – | – |
| CC1(C)CC2(NC(=O)NC2=O)c2cc(Cl)ccc2O1 (stereo not drawn) [6-Chloro-2,2-dimethyl-spiro-[chroman-4,4'-imidazolidine]-2',5'-dione] | 78 | 95 | 89 | 100 | 79 | 8 | 47 | -4 | 1000 | 11 | 60 | 47 | 86 | – | lenticular opacities on the 16th day (in words) ([2]; 5 mg/kg oral once a day): lenticular opacities were not observed; lenticular opacities on the 16th day (in words) ([2]; 25 mg/kg oral once a day): lenticular opacities were not observed; inhibition effect on cataract formation (in words) ([2]; galactosemic rats, FIG. 1 and Table 3): superior to the control compound; lenticular opacities, number with grade + ([2]; left, 1 mg/kg oral once a day): 1; lenticular opacities, number with grade - (no opacity) ([2]; left, 1 mg/kg oral once a day): 5; lenticular opacities, number with grade - (no opacity) ([2]; left, 5 mg/kg oral once a day): 6; lenticular opacities, number with grade - (no opacity) ([2]; left, 25 mg/kg oral once a day): 6; lenticular opacities, number with grade + ([2]; right, 1 mg/kg oral once a day): 1; lenticular opacities, number with grade - (no opacity) ([2]; right, 1 mg/kg oral once a day): 5; lenticular opacities, number with grade - (no opacity) ([2]; right, 5 mg/kg oral once a day): 6; lenticular opacities, number with grade - (no opacity) [2, 9]: 6; Inhibition of galactitol accumulation ([4]; lens, 1 mg/kg oral once a day): 2%; Inhibition of galactitol accumulation ([4]; lens, 5 mg/kg oral once a day): 19%; Inhibition of galactitol accumulation ([4]; lens, 25 mg/kg oral once a day): 46%; Inhibition of galactitol accumulation [4, 15]: 5%; Inhibition of galactitol accumulation [4, 16]: 50%; Inhibition of galactitol accumulation [4, 17]: 74%; inhibitory effect on galactitol accumulation in the sciatic nerve relative to the control compound ([4]; sciatic nerve, vs control compound): five times or more; inhibition of galactitol accumulation relative to the control compound ([4]; vs control compound): remarkably superior to the control compound |
| CC1CC2(NC(=O)NC2=O)c2cc(Cl)ccc2O1 (stereo not drawn) [6-Chloro-2-methyl-spiro-[chroman-4,4'-imidazolidine]-2',5'-dione] | – | – | 97 | 82 | 92 | 31 | 84 | 0 | 400 | – | – | – | – | 77 | higher activities such as the inhibition of sorbitol accumulation, predominant diastereomer compared with the other isomer [1]: 3-5 times; superior effect on the inhibition of sorbitol accumulation in comparison with the control compound [1]: 2-10 times |
| CC1(C)CC2(NC(=O)NC2=O)c2cc(F)ccc2O1 (stereo not drawn) [6-Fluoro-2,2-dimethyl-spiro-[chroman-4,4'-imidazolidine]-2',5'-dione] | 72 | 81 | 81 | 93 | 70 | 12 | 40 | 0 | 2000 | 35 | 58 | 22 | 33 | – | – |
| CC1CC2(NC(=O)NC2=O)c2cc(F)ccc2O1 (stereo not drawn) [6-Fluoro-2-methyl-spiro-[chroman-4,4'-imidazolidine]-2',5'-dione] | 93 | 100 | 96 | 100 | 91 | 31 | 77 | 7 | 500 | 43 | 80 | 39 | 100 | 180 | higher activities such as the inhibition of sorbitol accumulation, predominant diastereomer compared with the other isomer [1]: 3-5 times; superior effect on the inhibition of sorbitol accumulation in comparison with the control compound [1]: 2-10 times |
| O=C1NC(=O)C2(CCOc3ccc(F)cc32)N1 (stereo not drawn) [6-fluoro-spiro-[chroman-4,4'-imidazolidine]-2',5'-dione, reference compound] | 62 | 67 | 77 | 88 | 78 | 17 | 53 | 2 | – | -29 | 41 | 26 | 15 | – | lenticular opacities on the 16th day (in words) ([2]; 25 mg/kg oral once a day): lenticular opacities were not observed; lenticular opacities, number with grade ++ ([2]; left, 1 mg/kg oral once a day): 3; lenticular opacities, number with grade +++ ([2]; left, 1 mg/kg oral once a day): 3; lenticular opacities, number with grade + ([2]; left, 5 mg/kg oral once a day): 4; lenticular opacities, number with grade - (no opacity) ([2]; left, 5 mg/kg oral once a day): 2; lenticular opacities, number with grade - (no opacity) ([2]; left, 25 mg/kg oral once a day): 6; lenticular opacities, number with grade ++ ([2]; right, 1 mg/kg oral once a day): 2; lenticular opacities, number with grade +++ ([2]; right, 1 mg/kg oral once a day): 4; lenticular opacities, number with grade + ([2]; right, 5 mg/kg oral once a day): 4; lenticular opacities, number with grade - (no opacity) ([2]; right, 5 mg/kg oral once a day): 2; lenticular opacities, number with grade - (no opacity) [2, 9]: 6; Inhibition of galactitol accumulation ([4]; lens, 1 mg/kg oral once a day): -11%; Inhibition of galactitol accumulation ([4]; lens, 5 mg/kg oral once a day): 5%; Inhibition of galactitol accumulation ([4]; lens, 25 mg/kg oral once a day): 22%; Inhibition of galactitol accumulation [4, 15]: 1%; Inhibition of galactitol accumulation [4, 16]: -12%; Inhibition of galactitol accumulation [4, 17]: 17% |
| CC1CC2(NC(=O)NC2=O)c2ccc(Cl)cc2O1 (stereo not drawn) [7-Chloro-2-methyl-spiro-[chroman-4,4'-imidazolidine]-2',5'-dione] | 83 | – | – | – | – | – | – | – | – | – | – | – | – | – | – |
| CC1CC2(NC(=O)NC2=O)c2cc(Cl)ccc2O1 (stereo not drawn) [d-6-chloro-2-methyl-spiro-[chromane-4,4'-imidazolidine]-2',5'-dione] | – | – | – | – | – | – | – | – | – | – | – | – | – | 43 | activity of the d-type relative to the dl-type product ([3]; d-type vs dl-type product): about twice |
| CC1CC2(NC(=O)NC2=O)c2cc(F)ccc2O1 (stereo not drawn) [d-6-fluoro-2-methyl-spiro-[chromane-4,4'-imidazolidine]-2',5'-dione] | – | – | – | – | – | – | – | – | – | – | – | – | – | 93 | activity of the d-type relative to the dl-type product ([3]; d-type vs dl-type product): about twice |
